Reference: ChEMBL document CHEMBL5209575, “Membrane potential based assay for SLC1A1 using HEK-293 SLC1A1 OE cells” (2022)

Molecular target: T1, Excitatory amino acid transporter 3 (Homo sapiens, UniProt P43005)
T1 sequence (P43005 whole entry): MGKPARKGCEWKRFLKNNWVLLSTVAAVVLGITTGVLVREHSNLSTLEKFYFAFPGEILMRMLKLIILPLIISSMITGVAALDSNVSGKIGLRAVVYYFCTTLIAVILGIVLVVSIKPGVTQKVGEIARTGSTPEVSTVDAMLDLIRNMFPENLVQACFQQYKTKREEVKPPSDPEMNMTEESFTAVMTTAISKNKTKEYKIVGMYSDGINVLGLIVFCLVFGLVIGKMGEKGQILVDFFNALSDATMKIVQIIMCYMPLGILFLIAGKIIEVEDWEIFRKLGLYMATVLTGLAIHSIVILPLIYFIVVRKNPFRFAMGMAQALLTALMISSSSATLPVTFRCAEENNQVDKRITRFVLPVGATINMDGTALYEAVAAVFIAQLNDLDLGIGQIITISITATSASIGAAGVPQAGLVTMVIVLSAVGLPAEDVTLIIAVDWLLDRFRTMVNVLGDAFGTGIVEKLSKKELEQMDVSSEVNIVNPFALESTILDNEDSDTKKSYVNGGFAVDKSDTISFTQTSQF
Test: Substrate uptake by the Excitatory Amino Acid Transporter 3 (EAAT3, SLC1A1) as assessed by the fluorescent FLIPR membrane potential dye in HEK-293 JumpIN-SLC1A1 cells (PubChem AID: 1794812)
Type: functional, cell-based, HEK293

EC50 (read-out: EC50) [µM]	SMILES	EC50 (hek293)
161	N[C@@H](CS)C(=O)O [CYSTEINE]	
	N[C@@H](CCC(=O)O)C(=O)O [GLUTAMIC ACID]	Substrate: The Commpound Is Eliciting A Specific Response, But A Broader Concentration Range Is Needed To Calculate A Correct Ec50
	N[C@@H](CC(=O)O)C(=O)O [ASPARTIC ACID]	Substrate: The Commpound Is Eliciting A Specific Response, But A Broader Concentration Range Is Needed To Calculate A Correct Ec50
